The structures appear in SMILES notation.

One data set deals with bone marrow. The experiment in a line: Immunohistochemistry of femur bone marrow in the OVX model. Conditions: OVX mice femur. In kind it is in vivo. The protocol:
‐Immunohistochemistry: Decalcified femurs were fixed in 4% paraformaldehyde (PFA) at 4 °C for 24 h, rinsed three times with phosphate‐buffered saline (PBS), and decalcified in 12.5 mM EDTA (pH 8.0) for 14 days. The specimens were dehydrated through a graded ethanol series (70%, 80%, 95%, 100%) and embedded in paraffin. Longitudinal sections (3 µm thick) were prepared using a microtome, mounted on glass slides, and dried at 55 °C. For deparaffinization, slides were treated with xylene (four 5‐min treatments) and rehydrated through descending ethanol concentrations (100%, 95%, 80%, 70%) in 2‐min intervals. Immunohistochemistry was performed with a ready‐to‐use IHC/ICC kit (BioVision, Inc.). Sections were incubated overnight at room temperature with primary antibodies (1:100) against MDM2, p53, Bcl‐2, and cleaved caspase‐3, followed by a 20‐min incubation with HRP‐conjugated anti‐mouse IgG polymer. After PBS washes, antigen‐antibody complexes were visualized using 3,3′‐diaminobenzidine (DAB) for 10 min, and sections were counterstained with hematoxylin for 1 minute. The stained sections were imaged using a Slide Scanner (Zeiss, Germany).

The subject of another data set is hBMSCs. The experiment in a line: Calcium deposit staining (X-Rhod-1) in hBMSCs. In kind it is cell-based, human. Conditions: X‐Rhod‐1, p < 0.05. The protocol: hBMSCs were differentiated in the presence of the 10 mM β‐glycerophosphate (Sigma‐Aldrich, G9422) and 50 µM ascorbic acid (Sigma‐Aldrich, A4403) in culture medium for 10 d. Subsequently, the cells were fixed with 4% PFA for 30 min, followed by two washes with Mg^2+‐and Ca^2+‐free dPBS (Welgene, LB‐204). To stain for calcium, X‐Rhod‐1 (Invitrogen, X14210) dye was diluted in Mg^2+‐and Ca^2+‐free dPBS at a concentration of 1 µM and incubated at room temperature in the dark for 1 h. The cells were then washed five times with Mg^2+‐and Ca^2+‐free dPBS at 10 min intervals. The samples were observed under a Cytation5 microscope (Agilent Technologies) at a wavelength of 595 nm.

A further data set concerns the target MDM2 (Homo sapiens, UniProt Q00987). The experiment in a line: MDM2 degradation by western blot in hBMSCs. The arrangement: endogenous in cells; host or cells: hBMSCs. In kind it is cell-based. The protocol:
Human Bone Marrow‐derived Mesenchymal Stem Cells (hBMSCs) were provided by Professor Lee's laboratory, and cells from passages four to nine were used for all experiments. hBMSCs were cultured in alpha‐minimum essential medium (Welgene, LM008‐01) supplemented with 10% Fetal Bovine Serum (FBS) (Gibco, US origin, 16000–044) and 1% penicillin/streptomycin (Gibco, 15140‐122).
(§1) After discarding the medium and washing the cells twice with cold dPBS, the cells were collected using a scraper and lysed using RIPA buffer (GenDEPOT, R4200‐010) containing protease and phosphatase inhibitors (GenDEPOT, P3200‐001). The collected samples were centrifuged at 13 200 rpm for 10 min at 4 °C, and the supernatant containing total protein was collected. SDS‐PAGE gels (10–12%) were prepared, and protein samples were mixed with 5X loading buffer containing reducing agent (Biosesang, S2002) and heated at 98 °C for 5 min. Equal amounts of protein samples were loaded onto a gel, separated by electrophoresis, and transferred onto nitrocellulose membranes using a Dry Transfer Stacks Kit (Invitrogen, IB23001). The membrane was blocked with 5% nonfat milk in 1X TBST for 1 h at room temperature to prevent nonspecific binding. The membranes were incubated with primary antibodies specific to the target proteins overnight at 4 °C with gentle shaking. The next day, the membrane was washed three times with TBST at 10 min intervals to remove unbound primary antibodies. The membranes were incubated with secondary antibodies (anti‐rabbit and anti‐mouse) conjugated to horseradish peroxidase (HRP) for 1 h at room temperature. The membrane was washed three times with 1X TBST at 10 min intervals to remove unbound secondary antibodies. After washing, a chemiluminescent substrate (ECL, Millipore, WBULS0100) was applied to the membrane to visualize protein bands using a chemiluminescence detector (for the antibodies used, see Table S2, Supporting Information).
The DC50 and Dmax values were calculated by western blot band quantification according to compound concentrations. The quantification value was normalized to the value relative to the untreated group and calculated using the sigmoidal dose‐response (variable slope) equation in GraphPad Prism.
In general terms: Immunoblotting shows a protein as a band on a membrane.

For a further data set, the system named is RUNX2, OCN, OPN. The experiment in a line: qPCR of osteogenic differentiation marker genes in hBMSCs. In kind it is cell-based, human. The protocol:
Total RNA was extracted from hBMSCs treated with Nutlin‐3 or CL144, as well as from control cells, using Trizol (Invitrogen, 15596026), according to the manufacturer's instructions. cDNA was synthesized using TOPscript RT DryMIX (Enzynomics, RT200). Human gene‐specific primer sequences were used. (Used primer sequences see Table S2, Supporting Information). qPCR was conducted using the SYBR Green qPCR Master Mix (Applied biosystems, 4 309 155). Relative gene expression levels were calculated using the ΔΔCt method with GAPDH as the internal control for normalization.

Another data set concerns the target T1, IKZF1 (Homo sapiens, UniProt Q13422).
T1 construct: endogenous in cells; host or cells: hBMSCs
Nature of the data set: Neo-substrate off-target immunoblot in hBMSCs. The data set is classed as cell-based. To be noted: 10 µM, conditions with MDM2 degradation ≈70%. The protocol: as §1, with “After washing, a chemiluminescent substrate (ECL, Millipore, WBULS0100) was applied to the membrane to visualize protein bands using a chemiluminescence detector (for the antibodies used, see Table S2, Supporting Information).” left out

Sequence of MDM2 (Q00987 whole entry): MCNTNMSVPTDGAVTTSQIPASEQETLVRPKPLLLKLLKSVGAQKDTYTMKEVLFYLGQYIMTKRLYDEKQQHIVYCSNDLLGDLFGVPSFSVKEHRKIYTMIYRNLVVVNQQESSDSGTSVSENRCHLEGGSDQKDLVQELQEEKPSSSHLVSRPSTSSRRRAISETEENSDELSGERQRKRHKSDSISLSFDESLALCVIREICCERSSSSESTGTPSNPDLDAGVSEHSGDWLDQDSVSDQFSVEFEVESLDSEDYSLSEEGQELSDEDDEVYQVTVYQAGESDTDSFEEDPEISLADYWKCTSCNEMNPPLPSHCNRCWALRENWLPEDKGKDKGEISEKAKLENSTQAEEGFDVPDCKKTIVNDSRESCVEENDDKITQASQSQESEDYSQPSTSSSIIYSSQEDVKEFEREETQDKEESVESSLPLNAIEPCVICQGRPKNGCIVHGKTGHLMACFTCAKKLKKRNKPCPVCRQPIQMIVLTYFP
T1 sequence (Q13422 whole entry): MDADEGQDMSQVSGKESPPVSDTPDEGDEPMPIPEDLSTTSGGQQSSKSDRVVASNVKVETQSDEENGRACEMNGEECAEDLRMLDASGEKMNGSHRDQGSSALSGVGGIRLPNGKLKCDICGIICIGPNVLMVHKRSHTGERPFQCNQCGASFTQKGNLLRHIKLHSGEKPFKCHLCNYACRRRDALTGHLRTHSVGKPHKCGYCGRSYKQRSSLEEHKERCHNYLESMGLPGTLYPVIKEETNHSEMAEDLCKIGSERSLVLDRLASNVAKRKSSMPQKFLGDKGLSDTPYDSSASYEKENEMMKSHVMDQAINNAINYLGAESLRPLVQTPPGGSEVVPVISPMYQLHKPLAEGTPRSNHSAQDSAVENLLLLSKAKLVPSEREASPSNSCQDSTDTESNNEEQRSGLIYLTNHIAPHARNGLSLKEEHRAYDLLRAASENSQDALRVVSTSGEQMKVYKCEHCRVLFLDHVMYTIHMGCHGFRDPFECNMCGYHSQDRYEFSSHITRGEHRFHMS

Take `COc1ccc(C2=N[C@H](c3ccc(Cl)cc3)[C@H](c3ccc(Cl)cc3)N2C(=O)N2CCN(CC(=O)NCCCCCCCCOc3cccc4c3C(=O)N(C3CCC(=O)NC3=O)C4=O)C(=O)C2)c(OC(C)C)c1` (stereo in doubt) [CL144]: the “expression of apoptosis markers Bcl‐2 or cleaved caspase‐3 (bone marrow toxicity)” value with bone marrow (IHC) is reported as “no corresponding increase”. In the data set with bone marrow (compared to Con and DMSO group), the “MDM2 expression (IHC)” value is reported as “effectively reduced MDM2 expression” and the “p53 expression (IHC)” value was “significantly increased p53 expression”. In addition, the “calcium deposits compared to the control group” value in the data set on hBMSCs is recorded as “significantly increased”. The “MDM2 degradation, dose-dependent effect” value at MDM2 (0.1 µM to 10 µM) is reported as “robust MDM2 degradation”. Further, the MDM2 degradation entry at MDM2 (10 µM, neo-substrate experiment) is given as “≈ 70%”. In addition, at MDM2 (10 μΜ for 1 h), the “decrease in MDM2 levels compared to the basal level” value is reported as “over 80%”. Moreover, at MDM2 (quantified western blot, 1 nM to 50 µM, n = 2), the “maximal degradation concentration (Dmax)” value is recorded as 1 μΜ. Further, at MDM2 (quantified western blot, 1 nM to 50 µM, n = 2, read-out: half‐maximal degradation concentration (DC50)), the DC50 was 90 nM. Also, the “OPN mRNA level” value in the data set with RUNX2, OCN, OPN (10 μΜ) is reported as “increased”. In the data set with RUNX2, OCN, OPN (same concentrations), the “expression levels of RUNX2 and OCN (mRNA) compared to Nutlin‐3” value is on record as “significantly increased”. On IKZF1, the IKZF1 reduction entry is listed as “about 35%”.
